Results as given in patent US9079891B2, “Compounds that modulate intracellular calcium” (CALCIMEDICA, INC., priority 2010, dated 2015).

Tests used:
[1] = system: secreted IL-2 in Jurkat T cells; experiment: In vitro assay of cytokine (IL-2) release from T cells; format: cell-based; settings: Homo sapiens; Jurkat E6-1 cells; PHA/TPA stimulation 20 hours; IL-2 ELISA
Experimental: In Vitro Assay of Cytokine Release from T Cells
Jurkat E6-1 cells are obtained from ATCC and maintained in complete medium with 10% FBS at 37° C./6% CO2.
The day prior to performing the assay, Jurkat T cells are plated in 90 μL of HBSS Buffer with 1.8 mM CaCl2 and 1.75% fetal bovine serum (FBS) in a 96 well plate at a density of 1.5×10^5 cells/well for 3 hours. 10 μl of 10× test compound prepared in HBSS is added and incubated for 10 minutes at 37° C./6% CO2. Cells are stimulated by the addition of 10 μl of 11×PHA/TPA (27.5 μg/mL PHA/880 nM TPA) and incubated at 37° C./6% CO2 for 20 hours. On the following day, the supernatants are collected and assayed for IL-2 levels by ELISA according to the manufacturer's protocols. The IC50 value is calculated as the concentration at which 50% of secreted IL-2 in vehicle treated cells is inhibited.

[2] = target: T1, recombinant human STIM1 and Orai1 (Homo sapiens, UniProt Q96D31); experiment: Fluorescence-based assay of store-operated calcium entry in Orai1/STIM1 stable cells (FLIPR); format: cell-based; settings: HEK-293 cells stably expressing human Orai1/STIM1; Fluo-4; Peak-Basal signal; read-out: FLIPR_CRAC: 9 point CRC: O1S1_JR251: IC50: Peak_over_Basal
T1 construct: c-myc (C); expressed in transfected cells; host or cells: HEK-293 cells stably expressing human STIM1 and human Orai1
T1 sequence (Q96D31 whole entry): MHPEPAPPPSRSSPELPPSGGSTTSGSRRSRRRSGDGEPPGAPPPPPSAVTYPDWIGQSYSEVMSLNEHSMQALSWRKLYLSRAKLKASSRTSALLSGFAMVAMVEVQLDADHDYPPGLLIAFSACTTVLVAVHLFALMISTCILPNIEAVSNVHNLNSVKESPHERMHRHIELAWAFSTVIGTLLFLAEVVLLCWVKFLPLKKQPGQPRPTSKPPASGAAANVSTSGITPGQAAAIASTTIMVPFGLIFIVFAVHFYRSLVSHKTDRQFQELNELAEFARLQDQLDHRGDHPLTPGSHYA
Experimental: A. Fluorescence-Based Assay of Store-Operated Calcium Entry in Orai1/Stim1 Stable Cells.
Cells stably expressing recombinant human STIM1 and Orai1 are generated by transfecting a human Orai1 expression plasmid (pcDNA3.1-Orai1-cmyc) into HEK-293 cells stably overexpressing human STIM1 (Roos et al. 2005 JCB 169(3): 435-445). Colonies of cells stably expressing both STIM1 and Orai1 proteins are selected and then subcloned by limiting dilution. Cells were cultured at 37° C./6% CO2 in complete medium with 10% FBS and appropriate selection markers.
The day prior to performing the assay Orai1/STIM1 stable cells are plated in 50 μL of complete medium at 90-95% confluence in a 384 well plate. Cells are grown at 37° C./6% CO2 overnight. On the day of the assay, 1.5 μM fluo-4-AM (Invitrogen) in complete medium is added to the cells, which are then incubated for 1 hour at RT. Cells are washed once in Ca^2+-free HBSS (Hank's buffered saline solution) and 35 μl of Ca^2+-free HBSS is added to each well. Test compounds are added to wells in a 10 μL Ca^2+-free HBSS solution, prepared at 4.5× the desired final concentration, and incubated for 30 minutes at RT. The initial baseline fluorescence signal is then measured with a FLIPR^384 (Molecular Devices) plate reader. Calcium entry is initiated by adding 5 μl of 10×CaCl2 (10 mM) in HBSS, and changes in cellular fluorescence are measured with the FLIPR^384 plate reader. In each well, the magnitude of the fluorescence signal as a result of calcium entry into the cell is determined by calculating the difference between the peak fluorescence signal measured after calcium addition and the initial baseline fluorescence signal (designated Peak-Basal). IC50 values are typically calculated as the concentration that inhibited 50% of the Peak-Basal signal.

RBL-2H3 cells = experiment: Fluorescence-based assay of store-operated calcium entry in RBL-2H3 cells (FLIPR, thapsigargin); format: cell-based, rat; settings: Rattus norvegicus, Fluo-4, Upslope 0-7 sec, read-out: FLIPR_CRAC: 9 pt CRC - Fluo4_TG-D: RBL-2H3: IC50: Upslope 0-7 sec
Experimental: B. Fluorescence-Based Assay of Store-Operated Calcium Entry in RBL-2H3 Cells.
RBL-2H3 cells are obtained from ATCC and maintained in complete medium with 10% FBS at 37° C./6% CO2.
The day prior to performing the assay, RBL-2H3 cells are plated in 50 μl of complete medium in a 384 well plate. Cells are grown at 37° C./6% CO2 overnight and grow to 50-60% confluence by the next day. On the assay day, 1.5 μM Fluo-4-AM dye (Invitrogen) in complete medium is added and incubated for 1 hour at RT. Cells are washed twice in Ca^2+-free HBSS buffer and 35 μl Ca^2+-free HBSS buffer is added to each well. 10 μl of a test compound prepared in a Ca^2+-free HBSS solution at 4.5× of the desired concentration is added to a well and incubated for 5 minutes at RT. 10 μl of thapsigargin prepared in a Ca^2+-free HBSS solution at 5.5× of the desired concentration (5.5 uM) is added to each well and incubated for an additional 25 minutes. The initial baseline fluorescence signal is measured with a FLIPR^384 (Molecular Devices) plate reader. 5 μl of 12× calcium in HBSS (12 mM) is added and changes in cellular fluorescence are measured with the FLIPR^384 plate reader. In each well, the change in the fluorescent signal as a function of time due to calcium entry into the cell is determined by calculating the difference between the fluorescent signal measured 7 seconds after calcium addition and the initial baseline fluorescence signal at time zero (t=0). This parameter is designated Upslope. The IC50 value is calculated as the concentration at which 50% of the Upslope is inhibited.

IC50 [1]: < 50 nM
IC50 [2]: 600 to 1200 nM
IC50 (RBL-2H3 cells): < 600 nM
SMILES: Cc1cc2scnc2cc1-c1cnc(NC(=O)c2c(F)cccc2F)s1 [Example 20]
